Measurements reported in PubChem BioAssay (NCI).
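Method: 48-hour compound exposure of cells in 96-well plates, five concentrations, linear interpolation of endpoints. GI50: concentration for 50% inhibition of growth. TGI denotes the concentration required for complete inhibition of growth.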

Tests used:
Assay in all cases: DTP human tumour cell line panel, 48 h
[1] = test system: HT29 colon
[2] = test system: ACHN renal
[3] = test system: SN12C renal
[4] = test system: BT-549 breast
[5] = test system: SF-539 CNS
[6] = test system: 786-0 renal
[7] = test system: SF-268 CNS
[8] = test system: SF-295 CNS
[9] = test system: T-47D breast
[10] = test system: HCT-116 colon
[11] = test system: UACC-62 melanoma
[12] = test system: RXF 393 renal
[13] = test system: OVCAR-5 ovarian
[14] = test system: HOP-62 NSCLC
[15] = test system: NCI-H522 lung
[16] = test system: SK-MEL-5 melanoma
[17] = test system: CCRF-CEM leukemia
[18] = test system: SW-620 colon
[19] = test system: SK-MEL-2 melanoma
[20] = test system: MALME-3M melanoma
[21] = test system: OVCAR-3 ovarian
[22] = test system: HL-60(TB) leukemia
[23] = test system: OVCAR-4 ovarian
[24] = test system: U251 CNS
[25] = test system: MDA-MB-231 breast
[26] = test system: UO-31 renal
[27] = test system: MCF7 breast
[28] = test system: HOP-92 NSCLC
[29] = test system: SNB-75 CNS
[30] = test system: LOX IMVI melanoma
[31] = test system: OVCAR-8 ovarian
[32] = test system: IGROV1 ovarian
[33] = test system: EKVX NSCLC
[34] = test system: DU-145 prostate
[35] = test system: SK-OV-3 ovarian
[36] = test system: MDA-MB-435
[37] = test system: PC-3 prostate
[38] = test system: COLO 205 colon
[39] = test system: NCI-H226 lung
[40] = test system: HCT-15 colon
[41] = test system: NCI/ADR-RES ovarian
[42] = test system: SNB-19 CNS
[43] = test system: KM12 colon
[44] = test system: NCI-H23 lung
[45] = test system: SK-MEL-28 melanoma
[46] = test system: TK-10 renal
[47] = test system: HCC-2998 colon
[48] = test system: A549 NSCLC
[49] = test system: NCI-H460 lung
[50] = test system: M14 melanoma
[51] = test system: RPMI-8226 leukemia
[52] = test system: HS 578T breast
[53] = test system: K-562 leukemia
[54] = test system: SR leukemia
[55] = test system: CAKI-1 renal
[56] = test system: A498 renal
[57] = test system: UACC-257 melanoma
[58] = test system: MOLT-4 leukemia

Work on `COc1ccc(C2=C(N3CCc4ccccc43)C(=O)NC2=O)cc1` yielded a GI50 [1] of over 25 µM, a TGI [1] of over 25 µM and a GI50 [2] of over 25 µM. It also gave a TGI [2] of over 25 µM, a GI50 [3] of over 25 µM and a TGI [3] of over 25 µM. It also gave a GI50 [4] of 24.2 µM, a TGI [4] of over 25 µM and a GI50 [5] of over 25 µM. For the same compound, the TGI [5] was over 25 µM, the GI50 [6] was over 25 µM and the TGI [6] was over 25 µM. It also gave a GI50 [7] of over 25 µM, a TGI [7] of over 25 µM and a GI50 [8] of over 25 µM. It also gave a TGI [8] of over 25 µM, a GI50 [9] of over 17.8 µM and a TGI [9] of over 25 µM. It also gave a GI50 [10] of over 25 µM, a TGI [10] of over 25 µM and a GI50 [11] of over 19.9 µM. The TGI [11] was over 25 µM, the GI50 [12] was over 25 µM and the TGI [12] was over 25 µM. For the same compound, the GI50 [13] was over 25 µM, the TGI [13] was over 25 µM and the GI50 [14] was over 25 µM. For the same compound, the TGI [14] was over 25 µM, the GI50 [15] was over 17.9 µM and the TGI [15] was over 25 µM. The GI50 [16] was over 21.6 µM, the TGI [16] was over 25 µM and the GI50 [17] was 2.73 µM. The TGI [17] was over 11.7 µM, the GI50 [18] was over 25 µM and the TGI [18] was over 25 µM. It also gave a GI50 [19] of over 25 µM, a TGI [19] of over 25 µM and a GI50 [20] of over 25 µM. For the same compound, the TGI [20] was over 25 µM, the GI50 [21] was over 25 µM and the TGI [21] was over 25 µM. It also gave a GI50 [22] of over 21.1 µM, a TGI [22] of over 25 µM and a GI50 [23] of over 25 µM. For the same compound, the TGI [23] was over 25 µM, the GI50 [24] was over 25 µM and the TGI [24] was over 25 µM. The GI50 [25] was over 22.4 µM, the TGI [25] was over 25 µM and the GI50 [26] was 9.88 µM. For the same compound, the TGI [26] was over 25 µM, the GI50 [27] was over 25 µM and the TGI [27] was over 25 µM. For the same compound, the GI50 [28] was 0.642 µM, the TGI [28] was 19.7 µM and the GI50 [29] was over 24.1 µM. The TGI [29] was over 25 µM, the GI50 [30] was over 25 µM and the TGI [30] was over 25 µM. For the same compound, the GI50 [31] was over 25 µM, the TGI [31] was over 25 µM and the GI50 [32] was over 25 µM. The TGI [32] was over 25 µM, the GI50 [33] was over 24 µM and the TGI [33] was over 25 µM. It also gave a GI50 [34] of over 25 µM, a TGI [34] of over 25 µM and a GI50 [35] of over 25 µM. The TGI [35] was over 25 µM, the GI50 [36] was over 25 µM and the TGI [36] was over 25 µM. It also gave a GI50 [37] of over 20.2 µM, a TGI [37] of over 25 µM and a GI50 [38] of over 25 µM. The TGI [38] was over 25 µM, the GI50 [39] was over 25 µM and the TGI [39] was over 25 µM. The GI50 [40] was over 25 µM, the TGI [40] was over 25 µM and the GI50 [41] was over 25 µM. The TGI [41] was over 25 µM, the GI50 [42] was over 25 µM and the TGI [42] was over 25 µM. The GI50 [43] was over 25 µM, the TGI [43] was over 25 µM and the GI50 [44] was over 25 µM. For the same compound, the TGI [44] was over 25 µM, the GI50 [45] was over 25 µM and the TGI [45] was over 25 µM. It also gave a GI50 [46] of over 24.2 µM, a TGI [46] of over 25 µM and a GI50 [47] of over 25 µM. For the same compound, the TGI [47] was over 25 µM, the GI50 [48] was over 25 µM and the TGI [48] was over 25 µM. The GI50 [49] was over 25 µM, the TGI [49] was over 25 µM and the GI50 [50] was over 25 µM. The TGI [50] was over 25 µM, the GI50 [51] was over 22.9 µM and the TGI [51] was over 25 µM. The GI50 [52] was over 20.9 µM, the TGI [52] was over 25 µM and the GI50 [53] was over 17.4 µM. For the same compound, the TGI [53] was over 25 µM, the GI50 [54] was 13.7 µM and the TGI [54] was over 25 µM. For the same compound, the GI50 [55] was over 25 µM, the TGI [55] was over 25 µM and the GI50 [56] was over 16.6 µM. It also gave a TGI [56] of over 25 µM, a GI50 [57] of over 25 µM and a TGI [57] of over 25 µM. It also gave a GI50 [58] of 25 µM and a TGI [58] of over 25 µM.
